Experimental findings from US20260200928A1, “THERAPEUTIC COMPOUNDS” (Sanofi, priority 2022, published 2026) are described below.

pIC50: −log10 of the molar value.

This experiment deals with T1, human IL-17A (Homo sapiens, UniProt Q16552).
T1 construct: purchased R&D Systems 7955-IL/CF
T1 sequence (Q16552 24-155): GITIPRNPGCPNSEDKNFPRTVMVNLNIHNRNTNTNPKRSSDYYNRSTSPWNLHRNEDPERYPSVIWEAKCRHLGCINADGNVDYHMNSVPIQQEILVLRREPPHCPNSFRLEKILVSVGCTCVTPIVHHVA
The experiment in a line: IL-17A AlphaLISA competition assay (block of IL-17A binding to its receptor IL-17RA). Particulars: mean IC50 (n≥2), block of IL-17A binding to IL-17RA. The procedure, abridged:
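Human recombinant IL-17A (7.5 nM stock) pre-incubated 30 min at RT with compound, then IL-17RA/Fc (5 nM stock) added for 90 min; AlphaLISA read with anti-Fc acceptor beads, biotinylated anti-IL-17A antibody (5 nM) and streptavidin donor beads (3 h, dark). IC50 from 4-parameter logistic fit, normalised to DMSO and 4 μM reference inhibitor; n≥2.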
`CCc1nonc1C(=O)N[C@H](C(=O)Nc1cc(C[C@H]2C[C@@H](C(F)(F)F)NC2=O)ccn1)C1CCC(F)(F)CC1` [Example 220, N-((S)-1-(4,4-difluorocyclohexyl)-2-oxo-2-((4-(((3S,5S)-2-oxo-5-(trifluoromethyl)pyrrolidin-3-yl)methyl)pyridin-2-yl)amino)ethyl)-4-ethyl-1,2,5-oxadiazole-3-carboxamide] showed a negative logarithm of the IC50 (pIC50) of 7.32.

Turning to `Cc1nonc1C(=O)N[C@H](C(=O)Nc1cc(C[C@H]2C[C@@H](C(F)(F)F)NC2=O)ccn1)C1CCC(F)(F)CC1` [Example 221, N-((S)-1-(4,4-difluorocyclohexyl)-2-oxo-2-((4-(((3S,5S)-2-oxo-5-(trifluoromethyl)pyrrolidin-3-yl)methyl)pyridin-2-yl)amino)ethyl)-4-methyl-1,2,5-oxadiazole-3-carboxamide], the negative logarithm of the IC50 (pIC50) is 6.80.

As for `O=C(N[C@H](C(=O)Nc1cc(C[C@H]2C[C@@H](C(F)(F)F)NC2=O)ccn1)C1CCC(F)(F)CC1)c1nonc1C1CC1` [Example 222, 4-cyclopropyl-N-((S)-1-(4,4-difluorocyclohexyl)-2-oxo-2-((4-(((3S,5S)-2-oxo-5-(trifluoromethyl)pyrrolidin-3-yl)methyl)pyridin-2-yl)amino)ethyl)-1,2,5-oxadiazole-3-carboxamide], the pIC50 was 7.15.

In turn, `CCn1nccc1C(=O)N[C@H](C(=O)Nc1cc(C[C@H]2C[C@@H](C(F)(F)F)NC2=O)ccn1)C1CCC(F)(F)CC1` [Example 223, N-((S)-1-(4,4-difluorocyclohexyl)-2-oxo-2-((4-(((3S,5S)-2-oxo-5-(trifluoromethyl)pyrrolidin-3-yl)methyl)pyridin-2-yl)amino)ethyl)-1-ethyl-1H-pyrazole-5-carboxamide] gave a negative logarithm of the IC50 (pIC50) of 7.08.

With `Cn1nccc1C(=O)N[C@H](C(=O)Nc1cc(C[C@H]2C[C@@H](C(F)(F)F)NC2=O)ccn1)C1CCC(F)(F)CC1` [Example 224, N-((S)-1-(4,4-difluorocyclohexyl)-2-oxo-2-((4-(((3S,5S)-2-oxo-5-(trifluoromethyl)pyrrolidin-3-yl)methyl)pyridin-2-yl)amino)ethyl)-1-methyl-1H-pyrazole-5-carboxamide], the negative-log IC50 (pIC50) is 6.87.

`CC(C)n1nccc1C(=O)N[C@H](C(=O)Nc1cc(C[C@H]2C[C@@H](C(F)(F)F)NC2=O)ccn1)C1CCC(F)(F)CC1` [Example 225, N-((S)-1-(4,4-difluorocyclohexyl)-2-oxo-2-((4-(((3S,5S)-2-oxo-5-(trifluoromethyl)pyrrolidin-3-yl)methyl)pyridin-2-yl)amino)ethyl)-1-isopropyl-1H-pyrazole-5-carboxamide] gave a pIC50 of 6.98.

`COC[C@H](c1ccnc(NC(=O)[C@@H](NC(=O)c2nonc2C)C(C2CC2)C2CC2)c1)N1C[C@@H](C(F)(F)F)NC1=O` [Example 226, N—((S)-1,1-Dicyclopropyl-3-((4-((S)-2-methoxy-1-((S)-2-oxo-4-(trifluoro-methyl)imidazolidin-1-yl)ethyl)pyridin-2-yl)amino)-3-oxopropan-2-yl)-4-methyl-1,2,5-oxadiazole-3-carboxamide] showed a negative-log IC50 (pIC50) of 7.38.

Turning to `COC[C@H](c1ccnc(NC(=O)[C@@H](NC(=O)c2nonc2C2CC2)C(C2CC2)C2CC2)c1)N1C[C@@H](C(F)(F)F)NC1=O` [Example 227, 4-cyclopropyl-N-((S)-1,1-dicyclopropyl-3-((4-((S)-2-methoxy-1-((S)-2-oxo-4-(trifluoromethyl)imidazolidin-1-yl)ethyl)pyridin-2-yl)amino)-3-oxopropan-2-yl)-1,2,5-oxadiazole-3-carboxamide], the negative-log IC50 (pIC50) was 7.70.

`COC[C@H](c1ccnc(NC(=O)[C@@H](NC(=O)c2ccnn2C)C(C2CC2)C2CC2)c1)N1C[C@@H](C(F)(F)F)NC1=O` [Example 228, N-((S)-1,1-dicyclopropyl-3-((4-((S)-2-methoxy-1-((S)-2-oxo-4-(trifluoromethyl)imidazolidin-1-yl)ethyl)pyridin-2-yl)amino)-3-oxopropan-2-yl)-1-methyl-1H-pyrazole-5-carboxamide] gave a negative logarithm of the IC50 (pIC50) of 7.21.

Turning to `COC[C@H](c1ccnc(NC(=O)[C@@H](NC(=O)c2ccnn2C(C)C)C(C2CC2)C2CC2)c1)N1C[C@@H](C(F)(F)F)NC1=O` [Example 229, N-((S)-1,1-dicyclopropyl-3-((4-((S)-2-methoxy-1-((S)-2-oxo-4-(trifluoromethyl)imidazolidin-1-yl)ethyl)pyridin-2-yl)amino)-3-oxopropan-2-yl)-1-isopropyl-1H-pyrazole-5-carboxamide], the pIC50 is 7.07.

On to `[2H]C(c1ccnc(NC(=O)[C@@H](NC(=O)c2nonc2C2CC2)[C@H]2CC[C@H](C)CC2)c1)N1C[C@@H](C(F)(F)F)NC1=O` (stereo partly drawn) [Example 231, 4-Cyclopropyl-N-((1S)-1-((1r,4S)-4-methylcyclohexyl)-2-oxo-2-((4-(((S)-2-oxo-4-(trifluoromethyl)imidazolidin-1-yl)methyl-d)pyridin-2-yl)amino)ethyl)-1,2,5-oxadiazole-3-carboxamide], for which the pIC50 was 7.42.

With `[2H]C(c1ccnc(NC(=O)[C@@H](NC(=O)c2ccnn2C)[C@H]2CC[C@H](C)CC2)c1)N1C[C@@H](C(F)(F)F)NC1=O` (stereo partly drawn) [Example 232, 1-Methyl-N-((1S)-1-((1r,4S)-4-methylcyclohexyl)-2-oxo-2-((4-(((S)-2-oxo-4-(trifluoromethyl)imidazolidin-1-VI)methyl-d)pyridin-2-yl)amino)ethyl)-1H-pyrazole-5-carboxamide], the pIC50 was 7.28.

For `C[C@H]1CC[C@H]([C@@H](NC(=O)c2nonc2C2CC2)C(=O)Nc2cc(C(NC(=O)CCC(F)(F)F)C3CC3)ccn2)CC1` (stereo partly drawn) [Example 235, 4-Cyclopropyl-N-((1S)-2-((4-(cyclopropyl(4,4,4-trifluorobutanamido)-methyl)pyridin-2-yl)amino)-1-((1r,4S)-4-methylcyclohexyl)-2-oxoethyl)-1,2,5-oxadiazole-3-carboxamide], the pIC50 was 7.18.

Molecule `Cn1nccc1C(=O)N[C@H](C(=O)Nc1cc(C(NC(=O)CCC(F)(F)F)C2CC2)ccn1)[C@H]1CC[C@H](C)CC1` (stereo partly drawn) [Example 236, N-((1S)-2-((4-(cyclopropyl(4,4,4-trifluorobutanamido)methyl)pyridin-2-yl)amino)-1-((1r,4S)-4-methylcyclohexyl)-2-oxoethyl)-1-methyl-1H-pyrazole-5-carboxamide] had a negative logarithm of the IC50 (pIC50) of 7.59.

`Cc1nonc1C(=O)N[C@H](C(=O)Nc1cc([C@@H](C)N2C[C@@H](C(F)(F)F)NC2=O)ccn1)[C@H]1CC[C@H](C)CC1` [Example 237, 4-methyl-N—((S)-1-((1r,4S)-4-methylcyclohexyl)-2-oxo-2-((4-((R)-1-((S)-2-oxo-4-(trifluoromethyl)imidazolidin-1-yl)ethyl)pyridin-2-yl)amino)ethyl)-1,2,5-oxadiazole-3-carboxamide] showed a pIC50 of 7.66.

As to `CC1CCC(C(NC(=O)c2nonc2C2CC2)C(=O)Nc2cc(C(C)N3CC(C(F)(F)F)NC3=O)ccn2)CC1` [Example 238, 4-cyclopropyl-N-((S)-1-((1r,4S)-4-methylcyclohexyl)-2-oxo-2-((4-((R)-1-((S)-2-oxo-4-(trifluoromethyl)imidazolidin-1-yl)ethyl)pyridin-2-yl)amino)ethyl)-1,2,5-oxadiazole-3-carboxamide], the pIC50 was 7.85.

With `CCn1nccc1C(=O)N[C@H](C(=O)Nc1cc([C@@H](C)N2C[C@@H](C(F)(F)F)NC2=O)ccn1)[C@H]1CC[C@H](C)CC1` [Example 239, 1-ethyl-N-((S)-1-((1r,4S)-4-methylcyclohexyl)-2-oxo-2-((4-((R)-1-((S)-2-oxo-4-(trifluoromethyl)imidazolidin-1-yl)ethyl)pyridin-2-yl)amino)ethyl)-1H-pyrazole-5-carboxamide], the pIC50 was 7.80.

In the case of `CC1CCC(C(NC(=O)c2ccnn2C)C(=O)Nc2cc(C(C)N3CC(C(F)(F)F)NC3=O)ccn2)CC1` [Example 240, 1-methyl-N-((S)-1-((1r,4S)-4-methylcyclohexyl)-2-oxo-2-((4-((R)-1-((S)-2-oxo-4-(trifluoromethyl)imidazolidin-1-yl)ethyl)pyridin-2-yl)amino)ethyl)-1H-pyrazole-5-carboxamide], the negative logarithm of the IC50 (pIC50) was 7.80.

Regarding `CC1CCC(C(NC(=O)c2ccnn2C(C)C)C(=O)Nc2cc(C(C)N3CC(C(F)(F)F)NC3=O)ccn2)CC1` [Example 241, 1-isopropyl-N-((S)-1-((1r,4S)-4-methylcyclohexyl)-2-oxo-2-((4-((R)-1-((S)-2-oxo-4-(trifluoromethyl)imidazolidin-1-yl)ethyl)pyridin-2-yl)amino)ethyl)-1H-pyrazole-5-carboxamide], the pIC50 is 7.54.

Molecule `COCC(NC(=O)CCC(F)(F)F)c1ccnc(NC(=O)C(NC(=O)c2nonc2C)C2CCC(C)CC2)c1` [Example 242, N-((1S)-2-((4-(2-methoxy-1-(4,4,4-trifluorobutanamido)ethyl)pyridin-2-yl)amino)-1-((1r,4S)-4-methylcyclohexyl)-2-oxoethyl)-4-methyl-1,2,5-oxadiazole-3-carboxamide] showed a negative logarithm of the IC50 (pIC50) of 7.07.

As for `COCC(NC(=O)CCC(F)(F)F)c1ccnc(NC(=O)C(NC(=O)c2nonc2C2CC2)C2CCC(C)CC2)c1` [Example 243, 4-cyclopropyl-N-((1S)-2-((4-(2-methoxy-1-(4,4,4-trifluorobutanamido)ethyl)pyridin-2-yl)amino)-1-((1r,4S)-4-methylcyclohexyl)-2-oxoethyl)-1,2,5-oxadiazole-3-carboxamide], the pIC50 is 7.42.

The molecule `CCn1nccc1C(=O)NC(C(=O)Nc1cc(C(COC)NC(=O)CCC(F)(F)F)ccn1)C1CCC(C)CC1` [Example 244, 1-ethyl-N-((1S)-2-((4-(2-methoxy-1-(4,4,4-trifluorobutanamido)ethyl)pyridin-2-yl)amino)-1-((1r,4S)-4-methylcyclohexyl)-2-oxoethyl)-1H-pyrazole-5-carboxamide] had a pIC50 of 7.33.

One may read the pIC50 as the negative decadic logarithm of the IC50, by convention in mol/L. A higher pIC50 goes with a small IC50.
